Experiments:
[1] = tested on: U2OS (osteosarcoma) cells; experiment: clonogenic survival assay, U2OS cells; type: cell-based, human
Procedure: (§1) Clonogenic assays were performed in 10 cm tissue culture dishes (for RPE-1 cells, U2OS cells and derived clones). Cells (1000 per dish) were seeded in complete media (10 mL) and allowed to attach overnight, then treated with cisplatin or cisplatin plus inhibitor for the times stated. Following treatments, cells were allowed to grow and form colonies for 10 days. Colonies formed were stained with Coomassie R250 (Sigma) and counted on a COLCount Colony Counter (Oxford Optronix). All experiments represent the mean (±SEM) of at least three biological repeats of duplicate dishes/flasks for each treatment.

[2] = tested on: γH2AX and EGFP-SNM1A foci in U2OS cells; experiment: microscopic analysis of damage-induced subnuclear foci, U2OS cells expressing EGFP-SNM1A; type: cell-based, human
Procedure: To this end, cells stably expressing N-terminally EGFP-tagged SNM1A (EGFP-SNM1A) were treated with 50 μM cisplatin alone, 19 (50 μM), or with a combination of both compounds. It is known that on treatment of cells with DNA crosslinking agents, SNM1A forms subnuclear foci that are associated with ongoing sites of DNA repair.[37] […] As previously established, cisplatin treatment efficiently induces co-localisation of EGFP-SNM1A foci and γH2AX foci within 4 hours following treatment, marking sites of cisplatin damage and its repair (Fig. 6C–E). These largely resolved 24 hours post-treatment, again consistent with previous studies.[16,37] Co-treatment of cells with 19 and cisplatin saw a robust induction of SNM1A foci, consistent with the SNM1A activity being dispensable for its localisation to sites of crosslink repair, and γH2AX foci formation (Fig. 6C–E). […] This clear persistence of repair intermediates and trapping of EGFP-SNM1A at the sites of these repair intermediate implies that 19 engages with SNM1A in a cellular context, delaying the completion of cisplatin crosslink repair, which, in turn, results in the sensitisation of cells to cisplatin.
To assess the number of nuclear foci following cisplatin/inhibitor treatments, cells were plated in glass bottom dishes (as above) and allowed to attach. Following treatment, cells were fixed with 4% (v/v) formaldehyde in PBS, blocked with immunofluoresence (IF) blocking buffer (5% horse serum, 1% saponin in PBS) for 1 h, then incubated with primary antibodies at the desired concentrations in IF blocking buffer (overnight, 4 °C). After washing cells three times with PBS, cells were incubated with secondary antibodies for 2–4 hours in IF blocking buffer, washed a further 3 times with PBS then stained with Hoechst 333 258 (1 μg mL^−1 in PBS) for 30 minutes before a further three washes (all washes and incubations were performed at room temperature, unless otherwise stated).
Confocal images were obtained with a Plan APO 63X 1.40NA oil immersion objective, a pinhole setting of 1 AU, bandpass emission settings of 410–468 nm for Hoechst, 490–544 nm for EGFP, 579–624 nm for RFP or Alexa 568, and 633–695 nm for Alexa 647, a projected pixel dimension of around 110 nm × 110 nm, a pixel dwell time of 1.35 μs, and with a line averaging setting of 2. In order to ensure sufficient cell numbers (N > 300), images were acquired in a tiled 5 × 5 format corresponding to an image area of about 0.65 mm × 0.65 mm. Images were imported into ImageJ and foci were counted using a macro adjusting for staining levels between experiments. Anti-γH2AX antibodies were a mouse monoclonal (Millipore; JBW301).

[3] = biological target: T1, SNM1C (Homo sapiens, UniProt Q96SD1); experiment: gel-based nuclease assay, SNM1C; type: biochemical; details: 2.5 nM SNM1C
T1 construct: for the MBL and β-CASP domains of SNM1C (aa 1–362) into the baculovirus expression vector pBF-6HZB; made in house; host or cells: Sf9 insect cells (baculovirus)
Description: To validate the inhibition of SNM1A, SNM1B, and SNM1C observed in the fluorescence-based screening assays, we then performed gel-based assays using 3′ terminally-labelled oligonucleotide substrates that enable both quantitative and qualitative (visual) assessment of the pattern of inhibition, for a subset of compounds. Importantly, whereas the fluorescence-based assay measures a single hydrolytic event at the substrate terminus, the gel-based nuclease assay informs on the pattern of digestion of the entire 51-mer substrate DNA over time.
Standard exonuclease assays were carried out in a 10 μL final volume containing 20 mM HEPES-KOH, pH 7.5, 50 mM KCl, 0.5 mM TCEP, 10 mM MgCl2, 0.05% (v/v) Triton X-100, 5% (v/v) glycerol, and SNM1 proteins as indicated. Inhibitors were dissolved in DMSO and diluted immediately prior to the reaction in the above buffer. Inhibitors were serially diluted two-fold from 100 μM. The DMSO concentration was kept constant at 0.1% (v/v) in the final reaction mixture. Inhibitors were incubated with the indicated SNM1 enzyme for 10 minutes at room temperature; reactions were initiated by addition of 10 nM DNA substrate and incubated at 37 °C for 20 min. Reactions were quenched by addition of 5 μL stop solution (95% formamide, 10 mM EDTA, 0.25% (v/v) xylene cyanol, 0.25% (v/v) bromophenol blue) and heated at 95 °C for 3 min. Reactions were analysed by 20% denaturing polyacrylamide gel electrophoresis solution of 19 : 1 acrylamide:bis-acrylamide, BioRad and 7 M urea (Sigma Aldrich) in 1 × TBE (Tris-borate EDTA) buffer. Electrophoresis was carried out at 525 V for 75 minutes; gels were subsequently fixed for 60 minutes in a 50% (v/v) methanol, 10% (v/v) acetic acid solution, and dried at 80 °C for two hours under vacuum. Dried gels were exposed to a Kodak Phosphor imager screen and scanned using a Typhoon 9500 instrument (GE Healthcare), scanned images were quantified using ImageJ.
Suppl. Figure 10. […] Products were analysed by 20% denaturing PAGE. […]

[4] = tested on: SNM1A- cells generated in U2OS background; experiment: clonogenic survival assay, SNM1A- U2OS cells; type: cell-based, human; details: 50 μM compound
Procedure: as §1

[5] = tested on: γH2AX foci in RPE-1 cells; experiment: microscopic analysis of damage-induced subnuclear foci, RPE-1 cells; type: cell-based, human
Procedure: To assess the number of nuclear foci following cisplatin/inhibitor treatments, cells were plated in glass bottom dishes (as above) and allowed to attach. Following treatment, cells were fixed with 4% (v/v) formaldehyde in PBS, blocked with immunofluoresence (IF) blocking buffer (5% horse serum, 1% saponin in PBS) for 1 h, then incubated with primary antibodies at the desired concentrations in IF blocking buffer (overnight, 4 °C).
Images were imported into ImageJ and foci were counted using a macro adjusting for staining levels between experiments. Anti-γH2AX antibodies were a mouse monoclonal (Millipore; JBW301).

T1 sequence (Q96SD1 1-362): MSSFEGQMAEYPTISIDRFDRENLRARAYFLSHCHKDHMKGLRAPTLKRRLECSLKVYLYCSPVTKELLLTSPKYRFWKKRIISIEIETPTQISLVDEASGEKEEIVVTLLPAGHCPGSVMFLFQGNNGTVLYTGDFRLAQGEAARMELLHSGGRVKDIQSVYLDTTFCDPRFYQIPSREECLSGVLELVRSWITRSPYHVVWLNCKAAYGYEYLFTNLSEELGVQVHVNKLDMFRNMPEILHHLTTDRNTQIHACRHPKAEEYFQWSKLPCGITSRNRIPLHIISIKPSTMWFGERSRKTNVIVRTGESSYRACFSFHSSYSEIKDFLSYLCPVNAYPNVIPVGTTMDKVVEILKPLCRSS

`C[C@H](Nc1nc(NCc2ccco2)nc2ccc(Cl)cc12)C(=O)NO` [compound 19] was tested, and the “effect on cisplatin cytotoxicity” value ([1]; U2OS wild-type, 50 μM compound 20 hours pre-treatment, 0–15 μM cisplatin) was “potentiation of cisplatin cytotoxicity”, the “cell death as single agent” value ([1]; U2OS, 50 μM compound) was at most 10% and the “cytotoxicity as single agent” value ([1]; U2OS, 100 μM compound) was “some cell death”. For the same compound, the “EGFP-SNM1A and γH2AX foci on co-treatment with cisplatin” value ([2]; U2OS EGFP-SNM1A, 50 μM compound + 50 μM cisplatin) was “persisted at 24 hours”, the “induction of EGFP-SNM1A and γH2AX foci by compound alone” value ([2]; U2OS EGFP-SNM1A, 50 μM compound alone) was “did not induce” and the “average number of γH2AX foci at 24 hours” value ([2]; U2OS, cisplatin treated with pretreatment with 50 μM 19) was 81.6 ± 1.7 foci. For the same compound, the “increase of average γH2AX foci number following pretreatment” value ([2]; U2OS, cisplatin treated, 24 hours) was 4 fold, the “inhibition of SNM1C in gel-based assay” value [3] was “inhibits each of SNM1A–C” and the “effect on cisplatin sensitivity” value [4] was “similarly sensitive to cisplatin treatment in the presence or absence of 19”. The “average γH2AX foci count at 24 hours” value ([5]; RPE-1, cisplatin treated with 50 μM 19) was 21.2 ± 0.7 foci and the “increase of average γH2AX foci count following pretreatment” value ([5]; RPE-1, cisplatin treated, 24 hours) was 2 fold.
